Experimental data taken from patent US10550143B2, “C,O-spiro aryl glycoside compounds, preparation therefor and use thereof” (SHANGHAI INSTITUTE OF MATERIA MEDICA, CHINESE ACADEMY OF …, priority 2015, dated 2020).

Columns and labels:
[1] = test system: db/db mice; assay: Chronic administration, glucose-stimulated insulin release in db/db mice; format: in vivo, mouse; conditions: glucose-stimulated insulin release, chronic administration
Protocol: (§1) Oral gavage administrated, daily dose volume was 10 mL/kg, administered once daily. Administration time was 9: 00-10:00 daily, and the administration period was 5 weeks.
The fourth week after administration, the mice were starved for 6 hours after morning administration and were orally administrated with glucose (1.5 g/kg), and blood was collected from the tail (10 μL EDTA+20 μL tail blood). Centrifuged and the supernatant was taken, stored at −20° C. for insulin test.

[2] = test system: db/db mice; assay: Chronic administration, fasting blood glucose in db/db mice; format: in vivo, mouse; conditions: for fasting blood glucose Pre: before administration; for Hypoglycemic rate % week 1 / Hypoglycemic rate % week 2 / Hypoglycemic rate % week 3 / Hypoglycemic rate % week 4: fasting blood glucose
Protocol: as §1
The random blood glucose of mice in the normal control group, model control group, test substance administration group and positive control group were determined on the 7th, 14th, 21st, 28th day (9: 00-10:00) every week after the first administration, and food was removed and after 6 hours of starvation, the fasting blood glucose in each group was measured. Free drinking during the hunger process. The rate of decrease of blood glucose was calculated according to the following formula: Average hypoglycemic rate %=(Blood glucose of model control group−Blood glucose of administration group)/Model control group×100%

[3] = test system: SD rats; assay: Acute administration of A28 at multiple doses, glucose tolerance of SD rats; format: in vivo, rat; conditions: SD rats OGTT; for Blood glucose level 0: before sugar
Protocol: (1) 80 SD rats were selected and starved overnight, took water freely, then randomly divided into 10 groups according to body weight and random blood glucose, 8 rats in each group. […] 1 h after oral gavage, 3 g/kg of glucose was orally administered to each group except blank control group, and the blood glucose level was monitored before the sugar administration, and at 15, 30, 60, 90 and 120 minutes after the sugar administration.
Average hypoglycemic rate %=(AUC0-120 min of solvent control group−AUC0-120 min of administration group)/(AUC0-120 min of solvent control group−AUC0-120 min of blank control group)*100%

[4] = test system: SD rats; assay: Acute administration of A28 at multiple doses, urinary glucose of SD rats; format: in vivo, rat; conditions: within 24 h
Protocol: (1) 72 normal male SD rats were selected and randomly divided into 9 groups according to body weight and blood glucose, 8 in each group. […] After oral gavage, the rats were placed in rats metabolic cages, and urine was collected after 24 h, and the urine volume was recorded, then preserved under −20° C. Rats take food and water freely during the experimental period.
(2) Index Determination: Glucose levels in urine are measured by the glucose assay kit.

## CCOc1ccc(Cc2cc([C@@H]3O[C@H](CO)[C@@H](O)[C@H](O)[C@H]3O)ccc2Cl)cc1 [Dapa]
[1]; dose 1 mg/kg
  Insulin AUC: 27.89 ± 3.63
  Insulin (ng/ml) 0 min: 12.92 ± 1.17 ng/mL
  Insulin (ng/ml) 15 min: 35.99 ± 5.34 ng/mL
  Insulin (ng/ml) 30 min: 29.85 ± 4.97 ng/mL
  Insulin (ng/ml) 60 min: 24.33 ± 2.90 ng/mL
  Insulin (ng/ml) pre: 8.05 ± 1.10 ng/mL
[1]; dose 3 mg/kg
  Insulin AUC: 22.69 ± 2.89
  Insulin (ng/ml) 0 min: 8.41 ± 1.07 ng/mL
  Insulin (ng/ml) 15 min: 21.29 ± 3.11 ng/mL
  Insulin (ng/ml) 30 min: 22.60 ± 3.22 ng/mL
  Insulin (ng/ml) 60 min: 31.36 ± 5.44 ng/mL
  Insulin (ng/ml) pre: 8.15 ± 0.91 ng/mL
[2]; 1 mg/kg once daily oral
  fasting blood glucose week 1: 9.4 ± 0.6 mmol/L
  fasting blood glucose week 2: 9.0 ± 0.6 mmol/L
  fasting blood glucose week 3: 10.0 ± 1.0 mmol/L
  fasting blood glucose week 4: 9.7 ± 0.7 mmol/L
  fasting blood glucose Pre: 14.0 ± 1.0 mmol/L
  Hypoglycemic rate % week 1: 30.3%
  Hypoglycemic rate % week 2: 59.0%
  Hypoglycemic rate % week 3: 43.9%
  Hypoglycemic rate % week 4: 39.5%
[2]; 3 mg/kg once daily oral
  fasting blood glucose week 1: 8.1 ± 0.6 mmol/L
  fasting blood glucose week 2: 7.7 ± 0.6 mmol/L
  fasting blood glucose week 3: 8.6 ± 0.4 mmol/L
  fasting blood glucose week 4: 7.8 ± 0.4 mmol/L
  fasting blood glucose Pre: 13.8 ± 1.2 mmol/L
  Hypoglycemic rate % week 1: 39.8%
  Hypoglycemic rate % week 2: 65.1%
  Hypoglycemic rate % week 3: 51.6%
  Hypoglycemic rate % week 4: 51.0%
[3]; oral 1 mg/kg
  AUC0-2 h: 16.6 ± 1.2 mmol·h/L
  Average hypoglycemic rate % (0-2 h): 35.1%
  Blood glucose level 15 min: 6.6 ± 0.7 mmol/L
  Blood glucose level 30 min: 7.8 ± 0.9 mmol/L
  Blood glucose level 60 min: 9.4 ± 1.1 mmol/L
  Blood glucose level 90 min: 9.5 ± 1.0 mmol/L
  Blood glucose level 120 min: 7.9 ± 1.3 mmol/L
  Blood glucose level 0: 4.9 ± 0.4 mmol/L
[3]; oral 3 mg/kg
  AUC0-2 h: 14.9 ± 1.0 mmol·h/L
  Average hypoglycemic rate % (0-2 h): 51.5%
  Blood glucose level 15 min: 4.7 ± 0.2 mmol/L
  Blood glucose level 30 min: 6.9 ± 1.0 mmol/L
  Blood glucose level 60 min: 8.6 ± 1.0 mmol/L
  Blood glucose level 90 min: 8.6 ± 1.3 mmol/L
  Blood glucose level 120 min: 8.3 ± 1.2 mmol/L
  Blood glucose level 0: 4.0 ± 0.6 mmol/L
[4]; oral 1 mg/kg
  Total sugar excretion: 706.69 ± 39.98 mg/100 g
  Urine concentration: 313.13 ± 16.92 mmol/L
  Urine volume: 31.38 ± 1.99 mL
[4]; oral 3 mg/kg
  Total sugar excretion: 859.30 ± 41.55 mg/100 g
  Urine concentration: 327.16 ± 24.63 mmol/L
  Urine volume: 36.88 ± 1.55 mL
